Reference: the NIST ThermoML archive (doi:10.1021/je900596d)

Conditions: Vibrating tube method

FC(F)=C(F)C(F)(F)F [hexafluoropropene]
Conditions	mass density [kg/m3]
348.12 K, 1780.6 kPa, Fluid (supercritical or subcritical phases)	126.81
348.12 K, 1804.3 kPa, Fluid (supercritical or subcritical phases)	129.36
348.12 K, 1829.7 kPa, Fluid (supercritical or subcritical phases)	132.19
348.12 K, 1851.6 kPa, Fluid (supercritical or subcritical phases)	134.57
348.12 K, 1872.9 kPa, Fluid (supercritical or subcritical phases)	137.09
348.12 K, 1894.9 kPa, Fluid (supercritical or subcritical phases)	139.69
348.12 K, 1917.6 kPa, Fluid (supercritical or subcritical phases)	142.36
348.12 K, 1939.9 kPa, Fluid (supercritical or subcritical phases)	144.88
348.12 K, 1967.9 kPa, Fluid (supercritical or subcritical phases)	148.35
348.12 K, 1992.7 kPa, Fluid (supercritical or subcritical phases)	151.5
348.12 K, 2016.1 kPa, Fluid (supercritical or subcritical phases)	154.47
348.12 K, 2044.1 kPa, Fluid (supercritical or subcritical phases)	158.31
348.12 K, 2068.5 kPa, Fluid (supercritical or subcritical phases)	161.51
348.12 K, 2096.5 kPa, Fluid (supercritical or subcritical phases)	165.49
348.12 K, 2143.5 kPa, Fluid (supercritical or subcritical phases)	172.38
348.12 K, 2192.1 kPa, Fluid (supercritical or subcritical phases)	180.05
348.12 K, 2212.1 kPa, Fluid (supercritical or subcritical phases)	183.28
348.12 K, 2238.5 kPa, Fluid (supercritical or subcritical phases)	187.82
348.12 K, 2266 kPa, Fluid (supercritical or subcritical phases)	192.69
348.12 K, 2288.1 kPa, Fluid (supercritical or subcritical phases)	196.82
348.12 K, 2310.2 kPa, Fluid (supercritical or subcritical phases)	201.01
348.12 K, 2332.6 kPa, Fluid (supercritical or subcritical phases)	205.6
348.12 K, 2354 kPa, Fluid (supercritical or subcritical phases)	210.08
348.12 K, 2375.5 kPa, Fluid (supercritical or subcritical phases)	214.74
348.12 K, 2397.3 kPa, Fluid (supercritical or subcritical phases)	219.85
348.12 K, 2419.9 kPa, Fluid (supercritical or subcritical phases)	225.48
348.12 K, 2442.3 kPa, Fluid (supercritical or subcritical phases)	231.34
348.12 K, 2470.6 kPa, Fluid (supercritical or subcritical phases)	239.59
348.12 K, 2472.8 kPa, Fluid (supercritical or subcritical phases)	240.22
348.12 K, 2475.3 kPa, Fluid (supercritical or subcritical phases)	241.04
348.12 K, 2478 kPa, Fluid (supercritical or subcritical phases)	241.76
348.12 K, 2479.4 kPa, Fluid (supercritical or subcritical phases)	242.23
348.12 K, 2481.5 kPa, Fluid (supercritical or subcritical phases)	242.88
348.12 K, 2484.1 kPa, Fluid (supercritical or subcritical phases)	243.75
348.12 K, 2485.5 kPa, Fluid (supercritical or subcritical phases)	244.17
348.12 K, 2487.8 kPa, Fluid (supercritical or subcritical phases)	244.94
348.12 K, 2490.1 kPa, Fluid (supercritical or subcritical phases)	245.8
348.12 K, 2493.8 kPa, Fluid (supercritical or subcritical phases)	247.53
348.12 K, 2495.7 kPa, Fluid (supercritical or subcritical phases)	248.38
348.12 K, 2497.4 kPa, Fluid (supercritical or subcritical phases)	248.67
348.12 K, 2498.8 kPa, Fluid (supercritical or subcritical phases)	250.42
348.12 K, 2499.7 kPa, Fluid (supercritical or subcritical phases)	251.97
348.12 K, 2500.9 kPa, Fluid (supercritical or subcritical phases)	254.86
348.12 K, 2501.9 kPa, Fluid (supercritical or subcritical phases)	260.28
348.12 K, 2502.8 kPa, Fluid (supercritical or subcritical phases)	268.19
348.16 K, 2506.4 kPa, Liquid	959.6
348.16 K, 2507.7 kPa, Liquid	959.78
348.16 K, 2509 kPa, Liquid	959.97
348.16 K, 2510.7 kPa, Liquid	960.12
348.16 K, 2511.1 kPa, Liquid	960.28
348.16 K, 2513.5 kPa, Liquid	960.38
348.16 K, 2516.3 kPa, Liquid	960.72
348.16 K, 2517 kPa, Liquid	960.83
348.16 K, 2518.6 kPa, Liquid	961.02
348.16 K, 2520.1 kPa, Liquid	961.1
348.16 K, 2520.8 kPa, Liquid	961.16
348.16 K, 2522.6 kPa, Liquid	961.35
348.16 K, 2523.5 kPa, Liquid	961.75
348.16 K, 2525.5 kPa, Liquid	961.71
348.16 K, 2526.1 kPa, Liquid	961.8
348.16 K, 2530 kPa, Liquid	962.41
348.16 K, 2532.2 kPa, Liquid	962.81
348.16 K, 2535.5 kPa, Liquid	963.11
348.16 K, 2538.4 kPa, Liquid	963.1
348.16 K, 2542.3 kPa, Liquid	963.6
348.16 K, 2544.8 kPa, Liquid	963.72
348.16 K, 2547.3 kPa, Liquid	963.99
348.16 K, 2549.5 kPa, Liquid	964.46
348.16 K, 2554.5 kPa, Liquid	964.95
348.16 K, 2561 kPa, Liquid	965.66
348.16 K, 2568.5 kPa, Liquid	966.39
348.16 K, 2574.8 kPa, Liquid	967.01
348.16 K, 2581.7 kPa, Liquid	967.68
348.16 K, 2588.5 kPa, Liquid	968.36
348.16 K, 2595 kPa, Liquid	968.97
348.16 K, 2601.2 kPa, Liquid	969.69
348.16 K, 2614.7 kPa, Liquid	970.9
348.16 K, 2627.6 kPa, Liquid	972.33
348.16 K, 2633.8 kPa, Liquid	972.9
348.16 K, 2640.7 kPa, Liquid	973.53
348.16 K, 2654.7 kPa, Liquid	974.76
348.16 K, 2667.6 kPa, Liquid	976.02
348.16 K, 2680.1 kPa, Liquid	977.1
348.16 K, 2693.1 kPa, Liquid	978.18
348.16 K, 2706.1 kPa, Liquid	979.32
348.16 K, 2718.8 kPa, Liquid	980.44
348.16 K, 2730.9 kPa, Liquid	981.5
348.16 K, 2744.5 kPa, Liquid	982.55
348.16 K, 2756.9 kPa, Liquid	983.71
348.16 K, 2770.2 kPa, Liquid	984.59
348.16 K, 2782.7 kPa, Liquid	985.9
348.16 K, 2796.7 kPa, Liquid	986.93
348.16 K, 2809.4 kPa, Liquid	987.97
348.16 K, 2835.1 kPa, Liquid	989.69
348.16 K, 2847.5 kPa, Liquid	990.63
348.16 K, 2861.9 kPa, Liquid	991.98
348.16 K, 2875.4 kPa, Liquid	992.69
348.16 K, 2888.5 kPa, Liquid	993.69
348.16 K, 2902.4 kPa, Liquid	994.77
348.16 K, 2923.1 kPa, Liquid	996.32
348.16 K, 2943.1 kPa, Liquid	997.63
348.16 K, 2969.1 kPa, Liquid	999.28
348.16 K, 2994.8 kPa, Liquid	1001.06
348.16 K, 3015.4 kPa, Liquid	1002.63
348.16 K, 3036.5 kPa, Liquid	1004.18
348.16 K, 3061.5 kPa, Liquid	1005.54
348.16 K, 3081.9 kPa, Liquid	1006.76
348.16 K, 3102.2 kPa, Liquid	1008.02
348.16 K, 3129.1 kPa, Liquid	1009.6
348.16 K, 3135.2 kPa, Liquid	1009.88
348.16 K, 3142.1 kPa, Liquid	1010.13
348.16 K, 3154.2 kPa, Liquid	1010.88
348.16 K, 3176.2 kPa, Liquid	1012.35
348.16 K, 3202.5 kPa, Liquid	1013.88
348.16 K, 3223.6 kPa, Liquid	1015.07
348.16 K, 3244.1 kPa, Liquid	1016.31
348.16 K, 3266.6 kPa, Liquid	1017.56
348.16 K, 3287 kPa, Liquid	1018.73
348.16 K, 3310.2 kPa, Liquid	1020.02
348.16 K, 3316.2 kPa, Liquid	1020.28
348.16 K, 3323.1 kPa, Liquid	1020.54
348.16 K, 3330.6 kPa, Liquid	1020.95
348.16 K, 3337.3 kPa, Liquid	1021.47
348.16 K, 3343.7 kPa, Liquid	1021.72
348.16 K, 3351.1 kPa, Liquid	1022.04
348.16 K, 3359.3 kPa, Liquid	1022.61
348.16 K, 3365.4 kPa, Liquid	1022.8
348.16 K, 3373.8 kPa, Liquid	1023.35
348.16 K, 3380 kPa, Liquid	1023.59
348.16 K, 3386.2 kPa, Liquid	1023.86
348.16 K, 3392.5 kPa, Liquid	1024.46
348.16 K, 3400.2 kPa, Liquid	1024.64
348.16 K, 3423.6 kPa, Liquid	1025.65
